Assay results: patent US4352885A, “Preparation of a novel NADP linked alcohol-aldehyde/ketone oxidoreductase from thermophilic anaerobic bacteria for analytical and commercial use” (Wisconsin Alumni Research Foundation, priority 1980, dated 1982)

Columns and labels:
[1] = molecular target: T1, NADP linked alcohol dehydrogenase (alcohol-aldehyde/ketone oxidoreductase) (Thermoanaerobacter brockii, UniProt P14941); experiment: Specific activity of partially purified NADP linked alcohol dehydrogenase with alcohols and carbonyl compounds (absorbance at 334 nm); format: biochemical, Thermoanaerobium brockii; conditions: for Activity V/mg. at 60° C.: saturating substrate (0.2-0.5 M alcohol or ketone, 10 mM acetaldehyde), 0.5 mM NADP or 0.2 mM NADPH, 0.1 M Tris-Cl pH 7.8; for Optimum pH: Tris-Cl buffers, acetaldehyde reduction or sec-butanol oxidation
T1 construct: of the T. brockii enzyme preparation with various alcohols and carbonyl compounds; made in house; host or cells: T. brockii itself (native host; partially purified enzyme)
T1 sequence (P14941 1-352): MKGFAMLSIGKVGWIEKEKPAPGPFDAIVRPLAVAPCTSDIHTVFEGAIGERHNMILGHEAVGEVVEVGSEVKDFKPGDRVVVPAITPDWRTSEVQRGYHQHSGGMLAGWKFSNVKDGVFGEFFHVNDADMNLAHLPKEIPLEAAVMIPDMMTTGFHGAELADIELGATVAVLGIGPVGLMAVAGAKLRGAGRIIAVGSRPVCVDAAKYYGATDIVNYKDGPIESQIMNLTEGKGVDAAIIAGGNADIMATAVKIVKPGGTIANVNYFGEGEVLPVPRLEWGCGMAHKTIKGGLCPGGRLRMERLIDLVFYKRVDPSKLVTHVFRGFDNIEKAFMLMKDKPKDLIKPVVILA

[2] = molecular target: T2, NADP linked alcohol dehydrogenase (secondary alcohol dehydrogenase activity) (Thermoanaerobacter brockii, UniProt P14941); experiment: Effects of metal ions, complexing agents and thiol reagents on the enzyme; format: biochemical, Thermoanaerobium brockii
T2 construct: The NADP linked alcohol dehydrogenase derived from T. brockii can be immobilized; made in house; host or cells: T. brockii itself (native host)
T2 sequence (P14941 1-352): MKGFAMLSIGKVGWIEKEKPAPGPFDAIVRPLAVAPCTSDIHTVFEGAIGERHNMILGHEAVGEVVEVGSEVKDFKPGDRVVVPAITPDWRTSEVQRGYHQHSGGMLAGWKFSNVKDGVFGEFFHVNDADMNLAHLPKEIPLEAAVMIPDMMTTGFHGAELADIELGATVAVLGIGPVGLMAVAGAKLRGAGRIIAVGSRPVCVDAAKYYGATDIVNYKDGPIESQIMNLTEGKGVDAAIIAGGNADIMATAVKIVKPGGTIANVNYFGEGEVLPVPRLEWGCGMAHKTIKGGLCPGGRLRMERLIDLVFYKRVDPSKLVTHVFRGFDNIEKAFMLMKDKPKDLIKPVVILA
Protocol: Metal ions, complexing agents and thiol reagents had the following effects.
Each of the above studies were performed at 40° C.

T. brockii cultures = experiment: Reduction of ketones by T. brockii cultures; format: cell-based, Thermoanaerobium brockii; conditions: 0.5% ketone in TYEG medium; 60° C.; 15 hours incubation
Protocol: T. brockii was incubated at 60° C. in anaerobic culture tubes containing the previously described TYEG medium supplemented with 0.5% acetone or butanone. More than 50% of each ketone was converted to the corresponding alcohol after 15 hours incubation. Growth of the organism ceased once the pH fell below 5.0. The reaction is indicated in FIG. 1 when acetone is substituted for glucose to produce the corresponding secondary isopropanol.

Compound	Activity V/mg. at 60° C. [1] [μ Mole/Min./Mg Protein]	other results
O=C1CC2CCC1C2 (centres unmarked)	4.9	–
2-Cyclohexanone	4.9	–
O[C@H](CS)[C@H](O)CS (racemic) [DTT, dithiothreitol]	–	Reactivation of PCMB inhibited enzyme ([2]; 5 mM DTT, within a few minutes, 1 mM ZnSO4, 40° C.): Complete reversal of the PCMB inhibition
CC1CCCCC1=O (centres unmarked) [2-Methyl Cyclohexanone]	6.0	–
CC1CCCC(=O)C1 (centres unmarked) [3-Methyl Cyclohexanone]	2.0	–
CC1CCC(=O)CC1 [4-Methyl Cyclohexanone]	0.5	–
Oc1cccc2cccnc12 [8-hydroxyquinoline]	–	Inhibition of activity by complexing agents [2]: did not significantly inhibit activity
C=CC(O)CC (centres unmarked) [CH2CHCH(OH)CH2 CH3]	65.0	–
CC(C)CO [CH3 CH2 (CH3)CH2 OH]	3.1	–
CCC(C)CO (centres unmarked) [CH3 CH2 CH2 (CH3)CH2 OH]	3.0	–
CCCCCO [CH3 CH2 CH2 CH2 CH2 OH]	0.9	–
CCCCO [CH3 CH2 CH2 CH2 OH]	4.1	–
CCCO [CH3 CH2 CH2 OH]	3.6	–
CCC(C)O (centres unmarked) [CH3 CH2 CH(OH)CH3, sec-butanol]	78.0	Optimum pH [1]: 7.8-9.0
CCO [CH3 CH2 OH]	3.2	–
CC(O)CC(C)O (centres unmarked) [CH3 CH(OH)CH2 CH(OH)CH3]	2.6	–
CC(C)O [CH3 CH(OH)CH3, isopropanol]	59.0	–
CC=O [CH3 CHO, acetaldehyde]	7.8	Optimum pH [1]: 7.8
CCC(C)=O [CH3 COCH2 CH3, butanone]	7.6	Ketone converted to the corresponding alcohol (T. brockii cultures): More than 50%
CC(C)=O [CH3 COCH3, acetone]	10.4	Ketone converted to the corresponding alcohol (T. brockii cultures): More than 50%
CO [CH3 OH]	0	–
[Ca+2].[Cl-].[Cl-] [CaCl2]	–	Activation or inhibition by metal salts ([2]; 1 mM, 40° C.): no significant activation or inhibition
